Results as given in patent publication US20090062387A1, “METHOD OF PREVENTING NEPHROCALCINOSIS” (priority 2007, published 2009).

Tested on: Sprague-Dawley rats
Assay: Citrate in rats with ischemia/reperfusion injury or sham operation on a high phosphate diet with intermittent dehydration
Type: in vivo, rat
Details: day 60
Procedure: A total of 48 male and female Sprague-Dawley rats (150-200 g body weight at start of experiment) were divided in eight groups (A to H) containing 6 animals each (Table 1). On day 1 of the experiment groups A, B, E and F got 30 minutes of bilateral renal ischemia reperfusion injury, while control groups C, D, G and H were sham operated (12) (Table 1). The rats were given 48 hours to recover and BUN and serum creatinine levels were then determined.
On day 3 all groups (A to H) were put on a high phosphorus diet (NIH-07 diet, see reference #6) for 60 days. All groups were dehydrated for 8 hours once a week. While groups B, D, F and H received citrate (2% wt) in their drinking water, the other groups had access to regular tap water, except during periods of dehydration. As rats typically consume a daily average of 10 ml of water per 100 g of body weight, each rat of groups B, D, F and H received an approximate daily dosage of 2 g of citrate per kg of body weight.
On day 30 arterial blood samples were collected for pH, BUN and serum creatinine measurements.
On day 60 all animals were sacrificed. Arterial blood samples were collected for serum pH, phosphorus, BUN and creatinine measurements. Bladder urine samples were collected for pH measurements. Kidneys were longitudinally dissected, formalin fixed and paraffin embedded for generation of light microscopic sections. Additional paraffin embedded tissue sections were stained with “von Kossa” stain for calcium crystal identification and LM tissue sections were scored for acute tubular injury as described elsewhere.
Statistically significant differences between experimental groups were determined using Bonferroni t-tests and analysis of variance.

`O=C(O)CC(O)(CC(=O)O)C(=O)O` [citrate] was tested, and the “Decrease of serum phosphorus levels” value (all groups (male/female, I/R or sham), high phosphate diet, citrate in drinking water) was 30%, the “Effect on serum pH” value (all study groups) was “did not have a significant effect” and the “Effect on urine pH” value (all study groups) was “did not have a significant effect”. The “Histology: tubular injury, casts and calcium phosphate crystals” value (female I/R rats with citrate supplementation) was “focal tubular dilation but no casts and no calcium phosphate crystals”, the “Histology: tubular morphology” value (female sham operated rats, without vs with citrate) was “no significant difference in tubular morphology” and the “Histology: morphologic changes of ATN” value (male I/R rats with citrate supplementation) was “markedly reversed”. The “Serum BUN levels (renal function)” value (male and female rats with I/R, high phosphate diet, citrate 2% wt in drinking water) was “returned BUN levels to near control values” and the “Histology: tubular injury and cast formation” value (male sham operated rats with citrate supplementation) was “markedly decreased tubular injury and cast formation”.
